# According to publication PMC4014704, “β-Boomerang Antimicrobial and Antiendotoxic Peptides: Lipidation and Disulfide Bond Effects on Activity and Structure” (Pharmaceuticals, 2014):
# Peptide text beside a SMILES is read from it.
# What was measured:
# LPS micelles [1] = assay: Dynamic light scattering of LPS micelles; set-up: species or system E. coli 0111:B4; conditions: DLS, 0.5 μM LPS, LPS:peptide 1:4; LPS alone 814 nm
# Method: Dynamic light scattering measurements: LPS forms micelles of large sizes, which with the addition of increasing concentration of peptides, dissociates to smaller sizes. DLS measurements were made for 0.5 μM LPS and then with LPS: Peptide ratios of 1:2 and 1:4. The scattering was measured with Dynamic Light Scattering software provided with the instrument (Brookhaven Instruments Corp., Holtsville, NY, USA) and the scattering data was analyzed with CONTIN method.
# [2] = Reverse phase HPLC retention time (hydrophobicity); type: physicochemical; set-up: unit not given beside the values; conditions: C18 column (300 Å pore size, 5 μm particle size), linear gradient acetonitrile/water, higher Rt taken as more hydrophobic
# Excerpt: Materials: LPS of E. coli 0111:B4, FITC-LPS of E. coli 055:B5, acrylamide, NPN (1-N-phenylnaphthylamine) were purchased from Sigma (Saint Louis, MO, USA). All bacterial strains were obtained from the American Type Culture Collection (Manassas, VA, USA). Designed peptides were synthesized commercially by GL Biochem (Shanghai, China) and further purified by a reverse phase HPLC (Waters), using a C18 column (300 Å pore size, 5 μm particle size). The dimeric variants of β-boomerang lipopeptides were treated with 20% DMSO for 18 hours and the oxidized peptides were further purified by HPLC. A linear gradient of acetonitrile/water mixture was used for the purification and fractions eluting with higher purity were collected and freeze-dried.
# (§1) In addition, incorporation of disulfide bridges in AMPs may stabilize conformations and enhance cationicity and hydrophobicity required for enhanced activity. […] Residue Ile10 was chosen for Cys replacement since this residue is located at the exposed face of the β-strand of the YI12WF structure (Figure 1).
# red blood cells = conditions: mouse RBC ~4% (v/v) in PBS pH 7.0, 1 h, OD540, 1% Triton-X = positive control
# Method: Hemolytic assay: Blood was collected from healthy mice in a tube containing EDTA. Cells with EDTA were centrifuged at 800 g for 10 min, to remove the buffy plasma coat layer, and washed three times in PBS (35 mM phosphate buffer, 150 mM NaCl, pH 7.0). 50 μL of RBC solution was added to equal volume of two-fold dilution of the peptides in 96-well micro titer plates and incubated for one hour. The final erythrocyte concentration estimated to be ~4% (v/v). After one hour, the mixture was centrifuged and the release of hemoglobin in the supernatant was determined spectrophotometrically at OD540. Buffer and 1% Triton-X in the place of peptides used as negative control and positive control, respectively. The percentage of hemolysis was calculated using the following method: Percentage of hemolysis = (OD peptide − OD buffer)/(OD Triton-X-OD buffer) × 100
# LPS (endotoxin) = assay: LPS neutralization assay (chromogenic LAL kit); type: biochemical; conditions: 10 μM peptide concentration
# Method: LPS neutralization assay: LAL chromogenic kit (QCL 100 Cambrex, Walkersville, MD, USA) was used to determine endotoxin neutralization of the designed peptides following protocol of the vendor. LPS in Gram negative bacteria activates a proenzyme in limulus amoebocyte lysate (LAL). This activated enzyme in turn catalytically release a colored product pNA from the colorless substrate Ac-Ile-Glu-Ala-Arg-pNA which is detected spectrophotometrically at OD410. All peptides were dissolved in the pyrogen-free water supplied with the kit and pH was adjusted to 7.0 with 1N HCl or 1N NaOH (which is prepared in pyrogen-free water). The increasing concentrations of the peptides were incubated with three different concentrations of endotoxins, i.e., at 0.4, 0.8 and 1.0 endotoxin units (EU) in a total volume of 50 μL for 30 minutes at 37 °C. About 50 μL of LAL reagent was added to peptide-LPS complex and further incubated for 10 minutes followed by addition of 100 μL substrate. After incubation of six minutes for the reaction, the release of colored product was recorded at OD410. Water in the place of peptides served as negative control (blank) that is considered as 0% inhibition and percentage of LPS neutralization was calculated by: % of LPS neutralization = [(OD blank − OD peptide)/OD blank] × 100
# LPS micelles [3] = assay: Isothermal titration calorimetry; type: binding, E. coli 0111:B4; conditions: ITC
# Method: Isothermal titration calorimetry: Binding of designed peptides with LPS micelles was determined using isothermal titration calorimetry in VP-ITC micro calorimeter (Microcal Inc, Northampton, MA, USA). Peptides and LPS samples were dissolved in 10 mM phosphate buffer, pH 7.0 and filtered. LPS at a concentration of 10 μM was loaded into the sample cell and the reference cell was filled with the same buffer. The syringe was filled with 1mM peptide solution. Typically 30 injections of 3.5 μL of the peptides were made into the sample cell at 25 °C. Sample cell was stirred continuously at 300 rpm. Raw data were obtained and analyzed using single site binding model in Microcal Origin 5.0 software. Association constant (Ka) and enthalpy change (ΔH) were directly determined from ITC profiles. Dissociation constant was calculated from Kd = 1/Ka. ΔG and TΔS were estimated from the fundamental equations of thermodynamics, ΔG = −RTlnKa and TΔS = (ΔH − ΔG), respectively.
# S.pyogenes (ATCC 19615) = assay: Antibacterial assay (MIC); type: cell-based; conditions: 10 mM phosphate buffer pH 6.8, 3 h 37 °C, streaked on Mueller-Hinton agar
# Method: (§2) Antibacterial assay: The minimum inhibitory concentration (MIC) of the designed peptides was determined against four Gram-negative strains (E. coli, P. aeruginosa ATCC 27853, K. pneumoniae ATCC 13883, S. enterica ATCC 14028) and four Gram-positive strains (B. subtilis, S. aureus ATCC 25923, S. pyogenes ATCC 19615 and E. faecalis ATCC 29212). In brief, mid logarithmic phase of overnight grown bacterial cultures were obtained in LB broth and adjusted to OD600 0.2 in 10 mM phosphate buffer, pH 6.8. About 50 μL of these cells were added to equal volume of designed peptides at two-fold dilutions in 96-well sterile polypropylene plates followed by incubation for 3hrs at 37 °C. Aliquots of the above titrated wells were streaked onto Mueller-Hinton agar plates and the concentration at which no visible bacterial growth was observed considered as the MIC value of the peptide.
# S.enterica (ATCC 14028) = assay: Antibacterial assay (MIC); type: cell-based; conditions: 10 mM phosphate buffer pH 6.8, 3 h 37 °C, streaked on Mueller-Hinton agar
# Method: as §2
# [4] = tested on: K. pneumoniae (ATCC 13883); assay: Antibacterial assay (MIC); type: cell-based; conditions: 10 mM phosphate buffer pH 6.8, 3 h 37 °C, streaked on Mueller-Hinton agar
# Method: as §2
# [5] = tested on: P.aeruginosa (ATCC 27853); assay: Antibacterial assay (MIC); type: cell-based; conditions: 10 mM phosphate buffer pH 6.8, 3 h 37 °C, streaked on Mueller-Hinton agar
# Method: as §2
# S.aureus (ATCC 25923) = assay: Antibacterial assay (MIC); type: cell-based; conditions: 10 mM phosphate buffer pH 6.8, 3 h 37 °C, streaked on Mueller-Hinton agar
# Method: as §2
# E.faecalis (ATCC 29212) = assay: Antibacterial assay (MIC); type: cell-based; conditions: 10 mM phosphate buffer pH 6.8, 3 h 37 °C, streaked on Mueller-Hinton agar
# Method: as §2
# B.subtilis (Lab strain) = assay: Antibacterial assay (MIC); type: cell-based; conditions: 10 mM phosphate buffer pH 6.8, 3 h 37 °C, streaked on Mueller-Hinton agar
# Method: as §2
# E.coli (Lab strain) = assay: Antibacterial assay (MIC); type: cell-based; conditions: 10 mM phosphate buffer pH 6.8, 3 h 37 °C, streaked on Mueller-Hinton agar, no visible growth
# Method: as §2
# [6] = buffers
# Excerpt: as §1
# The solution conformations of YI13C, C4YI13C peptides were examined in free solution using two-dimensional ^1H-^1H NOESY and TOCSY experiments.
structure (smiles),measurement,setting,value
"CC[C@H](C)[C@H](NC(=O)[C@H](Cc1ccccc1)NC(=O)[C@H](CSSC[C@H](NC(=O)[C@H](Cc1ccccc1)NC(=O)[C@H](CCCCN)NC(=O)[C@H](CCCNC(=N)N)NC(=O)[C@H](CCCCN)NC(=O)[C@H](CCCNC(=N)N)NC(=O)[C@H](CCCCN)NC(=O)[C@H](Cc1c[nH]c2ccccc12)NC(=O)[C@H](CC(C)C)NC(=O)[C@@H](NC(=O)[C@@H](N)Cc1ccc(O)cc1)C(C)C)C(=O)N[C@@H](Cc1ccccc1)C(=O)N[C@H](C(N)=O)[C@@H](C)CC)NC(=O)[C@H](Cc1ccccc1)NC(=O)[C@H](CCCCN)NC(=O)[C@H](CCCNC(=N)N)NC(=O)[C@H](CCCCN)NC(=O)[C@H](CCCNC(=N)N)NC(=O)[C@H](CCCCN)NC(=O)[C@H](Cc1c[nH]c2ccccc12)NC(=O)[C@H](CC(C)C)NC(=O)[C@@H](NC(=O)[C@@H](N)Cc1ccc(O)cc1)C(C)C)C(N)=O [YI13C] (HELM PEPTIDE1{Y.V.L.W.K.R.K.R.K.F.C.F.I.[am]}|PEPTIDE2{Y.V.L.W.K.R.K.R.K.F.C.F.I.[am]}$PEPTIDE1,PEPTIDE2,11:R3-11:R3$$$V2.0)",Diameter of LPS aggregates,LPS micelles [1],291 nm
same,Retention time (Rt),[2],27.48
same,% of hemolysis at 50 μM peptide concentration,red blood cells,21.5%
same,LPS neutralization (in words),LPS (endotoxin),neutralization activity equal to acylated analogs
same,Ka,"LPS micelles [3]; 1 mM peptide into 10 μM LPS, 10 mM phosphate buffer pH 7.0, 25 °C, single site binding model",4.2 µM⁻¹
same,Kd,"LPS micelles [3]; LPS micelles, pH 7.0, 25 °C, Kd = 1/Ka",230 nM
same,Minimum inhibitory concentration (MIC),S.pyogenes (ATCC 19615),50 µM
same,Minimum inhibitory concentration (MIC),S.enterica (ATCC 14028),50 µM
same,Minimum inhibitory concentration (MIC),[4],25 µM
same,Minimum inhibitory concentration (MIC),[5],20 µM
same,Minimum inhibitory concentration (MIC),S.aureus (ATCC 25923),20 µM
same,Minimum inhibitory concentration (MIC),E.faecalis (ATCC 29212),50 µM
same,Minimum inhibitory concentration (MIC),B.subtilis (Lab strain),20 µM
same,Minimum inhibitory concentration (MIC),E.coli (Lab strain),12.5 µM
CCCC(=O)N[C@@H](Cc1ccc(O)cc1)C(=O)N[C@H](C(=O)N[C@@H](CC(C)C)C(=O)N[C@@H](Cc1c[nH]c2ccccc12)C(=O)N[C@@H](CCCCN)C(=O)N[C@@H](CCCNC(=N)N)C(=O)N[C@@H](CCCCN)C(=O)N[C@@H](CCCNC(=N)N)C(=O)N[C@@H](Cc1ccccc1)C(=O)N[C@H](C(=O)N[C@@H](Cc1ccccc1)C(=O)N[C@H](C(N)=O)[C@@H](C)CC)[C@@H](C)CC)C(C)C [C4YI12WF] (HELM PEPTIDE1{[CCCC(=O)[*:2]].Y.V.L.W.K.R.K.R.F.I.F.I.[am]}$$$$V2.0),Solubility in buffers (in words),[6],remained insoluble in buffers
"CCCC(=O)N[C@@H](Cc1ccc(O)cc1)C(=O)N[C@H](C(=O)N[C@@H](CC(C)C)C(=O)N[C@@H](Cc1c[nH]c2ccccc12)C(=O)N[C@@H](CCCCN)C(=O)N[C@@H](CCCNC(=N)N)C(=O)N[C@@H](CCCCN)C(=O)N[C@@H](CCCNC(=N)N)C(=O)N[C@@H](Cc1ccccc1)C(=O)N[C@@H](CSSC[C@H](NC(=O)[C@H](Cc1ccccc1)NC(=O)[C@H](CCCNC(=N)N)NC(=O)[C@H](CCCCN)NC(=O)[C@H](CCCNC(=N)N)NC(=O)[C@H](CCCCN)NC(=O)[C@H](Cc1c[nH]c2ccccc12)NC(=O)[C@H](CC(C)C)NC(=O)[C@@H](NC(=O)[C@H](Cc1ccc(O)cc1)NC(=O)CCC)C(C)C)C(=O)N[C@@H](Cc1ccccc1)C(=O)N[C@H](C(N)=O)[C@@H](C)CC)C(=O)N[C@@H](Cc1ccccc1)C(=O)N[C@H](C(N)=O)[C@@H](C)CC)C(C)C [C4YI12WFC] (HELM PEPTIDE1{[CCCC(=O)[*:2]].Y.V.L.W.K.R.K.R.F.C.F.I.[am]}|PEPTIDE2{[CCCC(=O)[*:2]].Y.V.L.W.K.R.K.R.F.C.F.I.[am]}$PEPTIDE1,PEPTIDE2,11:R3-11:R3$$$V2.0)",Solubility in buffers (in words),[6],remained insoluble in buffers
CCCCCCCC(=O)N[C@@H](Cc1ccc(O)cc1)C(=O)N[C@H](C(=O)N[C@@H](CC(C)C)C(=O)N[C@@H](Cc1c[nH]c2ccccc12)C(=O)N[C@@H](CCCCN)C(=O)N[C@@H](CCCNC(=N)N)C(=O)N[C@@H](CCCCN)C(=O)N[C@@H](CCCNC(=N)N)C(=O)N[C@@H](Cc1ccccc1)C(=O)N[C@H](C(=O)N[C@@H](Cc1ccccc1)C(=O)N[C@H](C(N)=O)[C@@H](C)CC)[C@@H](C)CC)C(C)C [C8YI12WF] (HELM PEPTIDE1{[CCCCCCCC(=O)[*:2]].Y.V.L.W.K.R.K.R.F.I.F.I.[am]}$$$$V2.0),Solubility in buffers (in words),[6],remained insoluble in buffers
"CCCCCCCC(=O)N[C@@H](Cc1ccc(O)cc1)C(=O)N[C@H](C(=O)N[C@@H](CC(C)C)C(=O)N[C@@H](Cc1c[nH]c2ccccc12)C(=O)N[C@@H](CCCCN)C(=O)N[C@@H](CCCNC(=N)N)C(=O)N[C@@H](CCCCN)C(=O)N[C@@H](CCCNC(=N)N)C(=O)N[C@@H](Cc1ccccc1)C(=O)N[C@@H](CSSC[C@H](NC(=O)[C@H](Cc1ccccc1)NC(=O)[C@H](CCCNC(=N)N)NC(=O)[C@H](CCCCN)NC(=O)[C@H](CCCNC(=N)N)NC(=O)[C@H](CCCCN)NC(=O)[C@H](Cc1c[nH]c2ccccc12)NC(=O)[C@H](CC(C)C)NC(=O)[C@@H](NC(=O)[C@H](Cc1ccc(O)cc1)NC(=O)CCCCCCC)C(C)C)C(=O)N[C@@H](Cc1ccccc1)C(=O)N[C@H](C(N)=O)[C@@H](C)CC)C(=O)N[C@@H](Cc1ccccc1)C(=O)N[C@H](C(N)=O)[C@@H](C)CC)C(C)C [C8YI12WFC] (HELM PEPTIDE1{[CCCCCCCC(=O)[*:2]].Y.V.L.W.K.R.K.R.F.C.F.I.[am]}|PEPTIDE2{[CCCCCCCC(=O)[*:2]].Y.V.L.W.K.R.K.R.F.C.F.I.[am]}$PEPTIDE1,PEPTIDE2,11:R3-11:R3$$$V2.0)",Solubility in buffers (in words),[6],remained insoluble in buffers
